These results are taken from EP0384661A1, “Antialgal compositions comprising diphenylethers” (ROHM AND HAAS COMPANY, priority 1989, dated 1990).

Experiment [1] deals with Mixed Cooling Tower Culture. Kind of experiment: MIC microtiter plate assay. Type of experiment: cell-based, mixed culture of algae. To be noted: growth/no-growth after 14 or 21 days, 25°C. The procedure: Efficacy studies were conducted on a variety of microorganisms with oxyfluorfen. Minimum Inhibitory Concentration (MIC) studies were conducted using microtiter plate assays. In this method, a wide range of concentrations was tested by preparing two-fold serial dilutions of the compound in 96-well plastic microtiter plates. All liquid media transfers were performed with calibrated single or multichannel digital pipetters. Stock solutions of compounds were prepared in appropriate solvents and dispensed to the growth medium. All subsequent dilutions in plates were made using the desired growth medium. The total volume of liquid in each well was 100 ul. The pure cultures used in this study were obtained from the Culture Collection of Algae at the University of Texas at Austin (UTEX). The mixed culture of algae was obtained from a cooling tower biofilm and maintained in liquid medium; microorganisms used as inocula were cultured in shaken liquid culture (50 ml of Bristol's medium, pH 7.0, 25°C); Journal of Phycology, 23s: 1-47, 1987) for one week or as needed to attain a desired cell mass. The cultures were then inoculated into the microtiter plates using a 96-prong multiple inoculator (5 µl inoculum); each well received a standard suspension of biomass (5% inoculum). Plates were incubated at 25°C under constant illumination (500 ft candles). The extent of growth was determined under low magnification with the aid of a microtiter plate reader. The growth in each cell was monitored periodically and growth/no-growth was recorded after 14 or 21 days. […] Following the evaluation procedure of Example 3, compounds according to the following structural formula, with X and Y substituents according to Table 4A, were evaluated with the results shown in Table 4B. [drawing 4]

The test system of experiment [2] is mixed cooling tower algae. The experiment is described as follows: Paint algicide test (latex paint on tongue depressors). Type of experiment: cell-based. The arrangement: key to 7 Days Algal Growth / 10 Days Algal Growth / 14 Days Algal Growth: 0 = No Algal Growth; 5 = Moderate Algal Growth; 10 = Heavy Algal Growth. The procedure: Solutions of oxyfluorfen were prepared as follows in 1-ounce (28.3g) glass vials. Oxyfluorfen concentrate (0.17 g) was added to 19.83 g latex paint formulation (described below) to give 2-lb oxyfluorfen/100 gal. (2 kg/833 l) paint solution; in a similar manner, 0.08 g oxyfluorfen concentrate was added to 19.92 g latex paint formulation to give 1-lb/100-gal (1 kg/833 l) solution. Oxyfluorfen concentrate (1.0 g) was added to 19.0 g mixture of 2 parts xylene/1 part cyclohexanone; 0.17 g of the resultant solution was added to 19.83 g latex paint formulation to give 0.1-lb/100-gal oxyfluorfen solution; in a similar manner, 0.016 g of xylene/cyclohexanone solution was added to 19.984 g latex paint formulation to give 0.01-lb/100-gal solution.
The solutions were stirred manually with Teflon spatulas and each was applied to two tongue depressors using #7 paint brushes. Two control tongue depressors were similarly prepared except without oxyfluorfen in the latex paint formulation. The tongue depressors were allowed to dry for one week and then inoculated with four 50 ul drops of mixed cooling tower algae (obtained from surface scrapings of industrial cooling towers and maintained in a modified Allen's media formulation, described in EXAMPLE 1).
The tongue depressors were placed on plastic stages within large petri dishes and the area around the stages was filled with deionized water. The petri dishes were covered and placed in a Precision (Model 816) low temperature (25C) illuminated incubator for one week; at this point the tongue depressors were re-inoculated with one ml of the mixed cooling tower algae and returned to the incubator. The tongue depressors where then checked daily for algal growth (visual); results are found in Part C.
Oxyfluorfen was added as a 24% emulsifiable concentrate in mixed organic solvents. The following formulation is a typical paint blend for testing of stabilization against algal activity. Texanol¿ is trimethyl-1,3-pentanediol monoisobutyrate supplied by Eastman Chemical; Rhoplex AC-64 is a commercially available latex of a copolymer of butyl acrylate and methyl methacrylate. This paint formulation has a pH of 9.4 and an initial viscosity of […] (Krebs units).

Experiment [3] relates to mixed cooling tower culture. The experiment is described as follows: Simulated cooling tower water jar test, visual growth rating. Type of experiment: cell-based. Also noted: key to Visual Rating (7 Day Incubation): 0 = no growth; 1 = slight growth; 3 = moderate growth; 5 = abundant growth. The settings on record: for Visual Rating (7 Day Incubation): synthetic cooling tower water pH 8.5. As to the method: A study was conducted with simulated cooling tower water to determine the effect of oxyfluorfen as an antialgal compound under simulated cooling tower conditions. Synthetic cooling tower water was made up with the following final concentrations (pH 8.5): Approximately 500 ml of the above solution was added to half-gallon jars and each jar was charged with given levels of oxyfluorfen (supplied as an emulsifiable concentrate); one jar contained no antialgal compound (control). Another set of jars was prepared with known levels of Isothiazolone A, a known antialgal compound for comparison purposes. Each jar was inoculated with 5 ml of a mixed cooling tower culture which was obtained from surface scrapings of industrial cooling towers; the mixed populations were maintained at room temperature in modified Allen's Media Formulation B described below in Part B. Each jar was inoculated two times per week to challenge the system. Jars were incubated under a 12 hour illumination cycle at room temperature (25°C) and were mixed manually (by swirling) three times per day. Visual observations were recorded daily using the rating scale described in Part C.

Where [4] appears, read: 10 ppm (0.01 lb/100-gal) in latex paint.
[5] abbreviates: 100 ppm (0.10 lb/100-gal) in latex paint.
[6] abbreviates: 1000 ppm (1.0 lb/100-gal) in latex paint.
Setting [7] is: 2000 ppm (2.0 lb/100-gal) in latex paint.

Structures are written as SMILES. Some results are limits rather than exact numbers.

`CCOc1cc(Oc2ccc(C(F)(F)F)cc2Cl)ccc1[N+](=O)[O-]` [Oxyfluorfen, oxyfluorfen]: the MIC in experiment [1] is less than 4 ng/mL. The “7 Days Algal Growth” value in experiment [2] (setting [4]), in experiment [2] (setting [5]), in experiment [2] (setting [6]) and in experiment [2] (setting [7]) was 0 each time. Moreover, the “10 Days Algal Growth” value in experiment [2] (setting [4]) was found to be 2; in experiment [2] (setting [5]), 1; in experiment [2] (setting [6]), 0; in experiment [2] (setting [7]), 0. Moreover, the “14 Days Algal Growth” value in experiment [2] (setting [4]) amounted to 3; in experiment [2] (setting [5]), 1; in experiment [2] (setting [6]), 0; in experiment [2] (setting [7]), 0. For the same compound, the “levels that significantly reduced the rate of algal growth” value in experiment [2] (for up to 14 days, in latex paint) was no more than 10 ppm. In addition, in experiment [2] (in latex paint), the “levels that totally inhibited algal growth” value is listed as “above 100 ppm”. For the same compound, the “Visual Rating (7 Day Incubation)” value in experiment [3] (0.005 ppm), in experiment [3] (0.010 ppm), in experiment [3] (0.025 ppm), in experiment [3] (0.050 ppm), in experiment [3] (0.100 ppm) and in experiment [3] (0.250 ppm) was 0 each time. In experiment [3] (0.500 ppm), the “Visual Rating (7 Day Incubation)” value was 0. The “levels effective for controlling cooling tower algae” value in experiment [3] (simulated water chemistry conditions) is given as no more than 5 ppb.
